According to US10654884B2 (Vitae Pharmaceuticals, Inc., priority 2014, dated 2020):

Assays:
human CD73 = target: T1, human CD73 (Homo sapiens, UniProt P21589); experiment: Inhibition of 5′-Nucleotidase Activity of CD73 (Assay 1); format: biochemical; conditions: human CD73 4 ng/ml, 50 μM CMP, 20 min at RT, malachite green readout; read-out: Assay 1: IC50, inhibition of 5′-nucleotidase activity of CD73
T1 construct: purchased R&D Systems 5795-EN-010
T1 sequence (P21589 27-549): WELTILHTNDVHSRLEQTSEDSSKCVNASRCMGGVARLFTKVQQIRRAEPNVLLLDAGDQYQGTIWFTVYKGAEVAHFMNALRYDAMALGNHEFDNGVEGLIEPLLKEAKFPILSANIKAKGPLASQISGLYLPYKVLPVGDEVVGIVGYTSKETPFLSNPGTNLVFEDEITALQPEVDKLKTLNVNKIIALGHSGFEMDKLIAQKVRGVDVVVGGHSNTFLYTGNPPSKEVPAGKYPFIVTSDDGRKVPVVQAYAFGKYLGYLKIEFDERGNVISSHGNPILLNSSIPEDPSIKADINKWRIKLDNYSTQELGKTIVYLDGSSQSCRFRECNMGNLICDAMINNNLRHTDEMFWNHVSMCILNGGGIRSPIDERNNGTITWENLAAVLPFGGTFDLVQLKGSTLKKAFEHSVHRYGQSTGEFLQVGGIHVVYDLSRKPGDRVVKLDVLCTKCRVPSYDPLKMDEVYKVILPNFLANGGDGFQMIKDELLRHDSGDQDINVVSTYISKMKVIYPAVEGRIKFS
Procedure, shortened: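 Human CD73 (4 ng/ml final) was incubated with 50 μM CMP in 25 mM Tris-HCl pH 7.4, 0.005% Brij-35 for 20 min at RT. Reactions were stopped with malachite green reagent and absorbance was read at 620 nm. IC50 came from a 4-parameter logistic fit.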

[1] = target: T2, CD73 on U138 neuroglioma cells (Homo sapiens, UniProt P21589); experiment: Inhibition of Ecto-5′-Nucleotidase Activity in U138 Neuroglioma Cells (Assay 2); format: cell-based; conditions: 50 μM CMP, 2 hr at 37° C., malachite green readout, read-out: Assay 2: IC50, inhibition of ecto-5′-nucleotidase activity in U138 neuroglioma cells
T2 construct: U138 neuroglioma cells, which express CD73 on their surface; endogenous in cells; host or cells: U138 neuroglioma cells (ATCC)
T2 sequence (P21589 27-549): T1 sequence (P21589 27-549)
Procedure, shortened: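 Whole-cell CD73 activity in U138 human neuroglioma cells seeded the day before, washed free of phosphate, then given test compound dilutions with 50 μM CMP in HEPES-buffered saline, pH 7.4, DMSO ≤0.1%. Incubated 2 hr at 37° C; released inorganic phosphate in supernatant measured by malachite green; IC50 by nonlinear regression.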

IC50 (human CD73) [nM]	IC50 [1] [nM]	Compound
< 100	< 100	CCNc1nc(Cl)nc2c1ncn2[C@@H]1O[C@H](CO[C@@](C)(C(=O)OCC)P(=O)(O)O)[C@@H](O)[C@H]1O [Example 29, ((R)-2-(((2R,3S,4R,5R)-5-(2-chloro-6-(ethylamino)-9H-purin-9-yl)-3,4-dihydroxytetrahydrofuran-2-yl)methoxy)-1-ethoxy-1-oxopropan-2-yl)phosphonic Acid]
100 to 1000	< 100	CC(C)CNC(=O)[C@@H](OC[C@H]1O[C@@H](n2cnc3c(N)nc(Cl)nc32)[C@H](O)[C@@H]1O)P(=O)(O)O (single isomer, unassigned) [Example 17a]
< 100	< 100	CNc1nc(Cl)nc2c1ncn2[C@@H]1O[C@H](COC(C(F)(F)F)P(=O)(O)O)[C@@H](O)[C@H]1O (single isomer, unassigned) [Example 100a]
100 to 1000	< 100	CNc1nc(Cl)nc2c1ncn2[C@@H]1O[C@H](COC(C(F)(F)F)P(=O)(O)O)[C@@H](O)[C@H]1O (single isomer, unassigned) [Example 100]
< 100	< 100	Nc1nc(Cl)nc2c1ncn2[C@@H]1O[C@H](COC(COCc2ccccc2)(C(=O)O)C(=O)O)[C@@H](O)[C@H]1O [Example 6, 2-(((2R,3S,4R,5R)-5-(6-amino-2-chloro-9H-purin-9-yl)-3,4-dihydroxytetrahydrofuran-2-yl)methoxy)-2-((benzyloxy)methyl)malonic acid]
< 100	< 100	N#Cc1ccc(CC(OC[C@H]2O[C@@H](n3cnc4c(N)nc(Cl)nc43)[C@H](O)[C@@H]2O)(C(=O)O)C(=O)O)cc1 [Example 48, 2-(((2R,3S,4R,5R)-5-(6-amino-2-chloro-9H-purin-9-yl)-3,4-dihydroxytetrahydrofuran-2-yl)methoxy)-2-(4-cyanobenzyl)malonic acid]
100 to 1000	> 1000	CCOC(=O)[C@H](OC[C@H]1O[C@@H](n2cnc3c(N)nc([C@@H]4NCCO4)nc32)[C@H](O)[C@@H]1O)P(=O)(O)O (single isomer, unassigned) [Example 51]
< 100	100 to 1000	CCOC(=O)C(OC[C@H]1O[C@@H](n2cnc3ccc(Cl)nc32)[C@H](O)[C@@H]1O)P(=O)(O)O (single isomer, unassigned) [Example 87]
100 to 1000	> 1000	CNc1ncnc2c1ncn2[C@@H]1O[C@H](COC(C(=O)O)P(=O)(O)O)[C@@H](O)[C@H]1O (stereo partly drawn) [Example 67, 2-(((2R,3S,4R,5R)-3,4-dihydroxy-5-(6-(methylamino)-9H-purin-9-yl)tetrahydrofuran-2-yl)methoxy)-2-phosphonoacetic acid]
100 to 1000	> 1000	CCOC(=O)[C@H](OC[C@H]1O[C@@H](n2cnc3c(N)nc([C@H]4NCCO4)nc32)[C@H](O)[C@@H]1O)P(=O)(O)O (single isomer, unassigned) [Example 51a]
< 100	100 to 1000	CCOC(=O)[C@@H](OC[C@H]1O[C@@H](n2cnc3c(N)nc(F)nc32)[C@H](O)[C@@H]1O)P(=O)(O)O (single isomer, unassigned) [Example 52]
100 to 1000	> 1000	Nc1nc(Cl)nc2c1ncn2[C@@H]1O[C@H](CO[C@H](C(=O)OCc2ccccc2)P(=O)(O)O)[C@@H](O)[C@H]1O [Example 16a, ((S)-1-(((2R,3S,4R,5R)-5-(6-amino-2-chloro-9H-purin-9-yl)-3,4-dihydroxytetrahydrofuran-2-yl)methoxy)-2-(benzyloxy)-2-oxoethyl)phosphonic Acid]
100 to 1000	100 to 1000	CC(C)(C)NC(=O)[C@@H](OC[C@H]1O[C@@H](n2cnc3c(N)nc(Cl)nc32)[C@H](O)[C@@H]1O)P(=O)(O)O (single isomer, unassigned) [Example 19a]
100 to 1000	100 to 1000	CCOC(=O)[C@@H](OC[C@H]1O[C@@H](n2cnc3c(-n4ccnc4)nc(Cl)nc32)[C@H](O)[C@@H]1O)P(=O)(O)O (single isomer, unassigned) [Example 26a]
< 100	100 to 1000	CCOC(=O)[C@](C)(OC[C@H]1O[C@@H](n2cnc3c(N)nc(Cl)nc32)[C@H](O)[C@@H]1O)P(=O)(O)O (single isomer, unassigned) [Example 9]
< 100	100 to 1000	CCCS(=O)(=O)[C@H](OC[C@H]1O[C@@H](n2cnc3c(N)nc(Cl)nc32)[C@H](O)[C@@H]1O)P(=O)(O)O (single isomer, unassigned) [Example 12]
< 100	100 to 1000	CC(C)CS(=O)(=O)[C@H](OC[C@H]1O[C@@H](n2cnc3c(N)nc(Cl)nc32)[C@H](O)[C@@H]1O)P(=O)(O)O (single isomer, unassigned) [Example 13]
< 100	100 to 1000	CS(=O)(=O)c1ccccc1CC(OC[C@H]1O[C@@H](n2cnc3c(N)nc(Cl)nc32)[C@H](O)[C@@H]1O)(C(=O)O)C(=O)O [Example 86, 2-(((2R,3S,4R,5R)-5-(6-amino-2-chloro-9H-purin-9-yl)-3,4-dihydroxytetrahydrofuran-2-yl)methoxy)-2-(2-(methylsulfonyl)benzyl)malonic acid]
< 100	< 100	CCNC(=O)[C@@H](OC[C@H]1O[C@@H](n2cnc3c(NCC)nc(Cl)nc32)[C@H](O)[C@@H]1O)P(=O)(O)O (single isomer, unassigned) [Example 34a]
< 100	100 to 1000	CCOC(=O)[C@H](OC[C@@H]1O[C@H](n2cnc3c(N)nc(C)nc32)[C@@H](O)[C@H]1O)P(=O)(O)O (single isomer, unassigned) [Example 37]
< 100	100 to 1000	CCNC(=O)[C@H](OC[C@H]1O[C@@H](n2cnc3c(N)nc(Cl)nc32)[C@H](O)[C@@H]1O)P(=O)(O)O (single isomer, unassigned) [Example 18]

Compound	IC50 (human CD73) [nM]	IC50 [1] [nM]
O=C(O)C(OC[C@H]1O[C@@H](n2cnc3c(N[C@@H]4CCOC4)nc(Cl)nc32)[C@H](O)[C@@H]1O)C(=O)O [Example 68, 2-(((2R,3S,4R,5R)-5-(2-chloro-6-(((R)-tetrahydrofuran-3-yl)amino)-9H-purin-9-yl)-3,4-dihydroxytetrahydrofuran-2-yl)methoxy)malonic acid]	< 100	100 to 1000
